# Test system: ASPS-1 complex tumor spheroids, viability
# Experiment: Anticancer human tumor ASPS-1 cell line growth inhibition;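 further: spheroids exposed to agents for 7 days after 3 days of growth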;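 on viability, T/C: 100% = DMSO vehicle treated spheroids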
# Details: for IC50: curve of first compound; for viability, T/C: stronger effect = lower value
# Method in brief: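 Complex spheroids of malignant cells with endothelial cells and mesenchymal stem cells; agents alone or combined, from near clinical Cmax (or 10 microM if unknown) down in half-log steps, 0.25% DMSO final.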
# [1] = second compound 30 pM, first compound 0.0316 µM
# [2] = second compound 30 pM, first compound 0.1 µM
# [3] = second compound 30 pM, first compound 0.316 µM
# [4] = second compound 30 pM, first compound 1 µM
# [5] = second compound 30 pM, first compound 3.16 µM
# [6] = second compound 30 pM, first compound 10 µM
# [7] = second compound 94.9 pM, first compound 0.0316 µM
# [8] = second compound 94.9 pM, first compound 0.1 µM
# [9] = second compound 94.9 pM, first compound 0.316 µM
# [10] = second compound 94.9 pM, first compound 1 µM
# [11] = second compound 94.9 pM, first compound 3.16 µM
# [12] = second compound 94.9 pM, first compound 10 µM
# [13] = second compound 0.0003 µM, first compound 0.0316 µM
# [14] = second compound 0.0003 µM, first compound 0.1 µM
# [15] = second compound 0.0003 µM, first compound 0.316 µM
# [16] = second compound 0.0003 µM, first compound 1 µM
# [17] = second compound 0.0003 µM, first compound 3.16 µM
# [18] = second compound 0.0003 µM, first compound 10 µM
# [19] = second compound 0.000949 µM, first compound 0.0316 µM
# [20] = second compound 0.000949 µM, first compound 0.1 µM
# [21] = second compound 0.000949 µM, first compound 0.316 µM
# [22] = second compound 0.000949 µM, first compound 1 µM
# [23] = second compound 0.000949 µM, first compound 3.16 µM
# [24] = second compound 0.000949 µM, first compound 10 µM
# [25] = second compound 0.003 µM, first compound 0.0316 µM
# [26] = second compound 0.003 µM, first compound 0.1 µM
# [27] = second compound 0.003 µM, first compound 0.316 µM
# [28] = second compound 0.003 µM, first compound 1 µM
# [29] = second compound 0.003 µM, first compound 3.16 µM
# [30] = second compound 0.003 µM, first compound 10 µM
compound,measurement,setting,value
CC1COCCN1c1cc(-c2ccnn2C)c2ccnc(-c3ccn[nH]3)c2n1 (stereo not given) + COc1cc2c(cc1O)CCNC21CSC2c3c(OC(C)=O)c(C)c4c(c3C(COC1=O)N1C(O)C3Cc5cc(C)c(OC)c(O)c5C(C21)N3C)OCO4,IC50,second compound 30 pM,156 nM
same,IC50,second compound 94.9 pM,102 nM
same,IC50,second compound 0.0003 µM,< 31.6 nM
same,IC50,second compound 0.000949 µM,< 31.6 nM
same,IC50,second compound 0.003 µM,< 31.6 nM
same,"viability, T/C",[1],81.9%
same,"viability, T/C",[2],53.9%
same,"viability, T/C",[3],43.1%
same,"viability, T/C",[4],42.9%
same,"viability, T/C",[5],40.7%
same,"viability, T/C",[6],38.9%
same,"viability, T/C",[7],71.7%
same,"viability, T/C",[8],50.1%
same,"viability, T/C",[9],37.5%
same,"viability, T/C",[10],38.5%
same,"viability, T/C",[11],40.6%
same,"viability, T/C",[12],41%
same,"viability, T/C",[13],46.4%
same,"viability, T/C",[14],37%
same,"viability, T/C",[15],32%
same,"viability, T/C",[16],30.1%
same,"viability, T/C",[17],43%
same,"viability, T/C",[18],38.3%
same,"viability, T/C",[19],27.4%
same,"viability, T/C",[20],25%
same,"viability, T/C",[21],21.3%
same,"viability, T/C",[22],25.9%
same,"viability, T/C",[23],18.1%
same,"viability, T/C",[24],13.9%
same,"viability, T/C",[25],11.5%
same,"viability, T/C",[26],10.2%
same,"viability, T/C",[27],8.78%
same,"viability, T/C",[28],5.28%
same,"viability, T/C",[29],0.36%
same,"viability, T/C",[30],0.46%
COc1cc(C)[nH]c(=O)c1CN1CCc2c(Cl)cc(C(OC)C3COC3)c(Cl)c2C1=O (stereo not given) + COc1cc2c(cc1O)CCNC21CSC2c3c(OC(C)=O)c(C)c4c(c3C(COC1=O)N1C(O)C3Cc5cc(C)c(OC)c(O)c5C(C21)N3C)OCO4,IC50,second compound 30 pM,> 10000 nM
same,IC50,second compound 94.9 pM,> 10000 nM
same,IC50,second compound 0.0003 µM,> 10000 nM
same,IC50,second compound 0.000949 µM,> 10000 nM
same,IC50,second compound 0.003 µM,< 31.6 nM
same,"viability, T/C",[1],107%
same,"viability, T/C",[2],103%
same,"viability, T/C",[3],100%
same,"viability, T/C",[4],108%
same,"viability, T/C",[5],102%
same,"viability, T/C",[6],101%
same,"viability, T/C",[7],98.7%
same,"viability, T/C",[8],103%
same,"viability, T/C",[9],103%
same,"viability, T/C",[10],101%
same,"viability, T/C",[11],100%
same,"viability, T/C",[12],99.2%
same,"viability, T/C",[13],98%
same,"viability, T/C",[14],102%
same,"viability, T/C",[15],98.7%
same,"viability, T/C",[16],95%
same,"viability, T/C",[17],96.1%
same,"viability, T/C",[18],93.2%
same,"viability, T/C",[19],77.7%
same,"viability, T/C",[20],73.6%
same,"viability, T/C",[21],72.1%
same,"viability, T/C",[22],64.7%
same,"viability, T/C",[23],68.2%
same,"viability, T/C",[24],56%
same,"viability, T/C",[25],19.5%
same,"viability, T/C",[26],21.6%
same,"viability, T/C",[27],23.1%
same,"viability, T/C",[28],18.3%
same,"viability, T/C",[29],19%
same,"viability, T/C",[30],10.5%
Cc1cc(C)c(CNC(=O)c2cc(-c3ccc(CN4CCOCC4)cc3)cc3c2cnn3C2CCCC2)c(=O)[nH]1 + COc1cc2c(cc1O)CCNC21CSC2c3c(OC(C)=O)c(C)c4c(c3C(COC1=O)N1C(O)C3Cc5cc(C)c(OC)c(O)c5C(C21)N3C)OCO4,IC50,second compound 30 pM,> 10000 nM
same,IC50,second compound 94.9 pM,> 10000 nM
same,IC50,second compound 0.0003 µM,> 10000 nM
same,IC50,second compound 0.000949 µM,273 nM
same,IC50,second compound 0.003 µM,< 31.6 nM
same,"viability, T/C",[1],103%
same,"viability, T/C",[2],97.4%
same,"viability, T/C",[3],102%
same,"viability, T/C",[4],104%
same,"viability, T/C",[5],96.9%
same,"viability, T/C",[6],84.4%
same,"viability, T/C",[7],105%
same,"viability, T/C",[8],97.8%
same,"viability, T/C",[9],98.7%
same,"viability, T/C",[10],99.5%
same,"viability, T/C",[11],93.5%
same,"viability, T/C",[12],76.8%
same,"viability, T/C",[13],92%
same,"viability, T/C",[14],96.2%
same,"viability, T/C",[15],92.8%
same,"viability, T/C",[16],86.2%
same,"viability, T/C",[17],80.1%
same,"viability, T/C",[18],63.1%
same,"viability, T/C",[19],56.8%
same,"viability, T/C",[20],75.2%
same,"viability, T/C",[21],39.9%
same,"viability, T/C",[22],31.6%
same,"viability, T/C",[23],24.5%
same,"viability, T/C",[24],9.44%
same,"viability, T/C",[25],13.7%
same,"viability, T/C",[26],5.99%
same,"viability, T/C",[27],2.02%
same,"viability, T/C",[28],0.27%
same,"viability, T/C",[29],0.25%
same,"viability, T/C",[30],0.32%
Cc1sc2c(c1C)C(c1ccc(Cl)cc1)=NC(CC(=O)Nc1ccc(O)cc1)c1nnc(C)n1-2 (stereo not given) + COc1cc2c(cc1O)CCNC21CSC2c3c(OC(C)=O)c(C)c4c(c3C(COC1=O)N1C(O)C3Cc5cc(C)c(OC)c(O)c5C(C21)N3C)OCO4,IC50,second compound 30 pM,> 3000 nM
same,IC50,second compound 94.9 pM,> 3000 nM
same,IC50,second compound 0.0003 µM,> 3000 nM
same,IC50,second compound 0.000949 µM,772 nM
same,IC50,second compound 0.003 µM,< 9.49 nM
same,"viability, T/C","second compound 30 pM, first compound 0.00949 µM",109%
same,"viability, T/C","second compound 30 pM, first compound 0.03 µM",112%
same,"viability, T/C","second compound 30 pM, first compound 0.0949 µM",113%
same,"viability, T/C","second compound 30 pM, first compound 0.3 µM",103%
same,"viability, T/C","second compound 30 pM, first compound 0.949 µM",94%
same,"viability, T/C","second compound 30 pM, first compound 3 µM",83%
same,"viability, T/C","second compound 94.9 pM, first compound 0.00949 µM",106%
same,"viability, T/C","second compound 94.9 pM, first compound 0.03 µM",107%
same,"viability, T/C","second compound 94.9 pM, first compound 0.0949 µM",109%
same,"viability, T/C","second compound 94.9 pM, first compound 0.3 µM",103%
same,"viability, T/C","second compound 94.9 pM, first compound 0.949 µM",93.4%
same,"viability, T/C","second compound 94.9 pM, first compound 3 µM",70.2%
same,"viability, T/C","second compound 0.0003 µM, first compound 0.00949 µM",102%
same,"viability, T/C","second compound 0.0003 µM, first compound 0.03 µM",110%
same,"viability, T/C","second compound 0.0003 µM, first compound 0.0949 µM",103%
same,"viability, T/C","second compound 0.0003 µM, first compound 0.3 µM",97.1%
same,"viability, T/C","second compound 0.0003 µM, first compound 0.949 µM",85.2%
same,"viability, T/C","second compound 0.0003 µM, first compound 3 µM",72.4%
same,"viability, T/C","second compound 0.000949 µM, first compound 0.00949 µM",81.6%
same,"viability, T/C","second compound 0.000949 µM, first compound 0.03 µM",94.7%
same,"viability, T/C","second compound 0.000949 µM, first compound 0.0949 µM",88.7%
same,"viability, T/C","second compound 0.000949 µM, first compound 0.3 µM",76.9%
same,"viability, T/C","second compound 0.000949 µM, first compound 0.949 µM",44.3%
same,"viability, T/C","second compound 0.000949 µM, first compound 3 µM",26.3%
same,"viability, T/C","second compound 0.003 µM, first compound 0.00949 µM",24.1%
same,"viability, T/C","second compound 0.003 µM, first compound 0.03 µM",24.6%
same,"viability, T/C","second compound 0.003 µM, first compound 0.0949 µM",29.2%
same,"viability, T/C","second compound 0.003 µM, first compound 0.3 µM",20.9%
same,"viability, T/C","second compound 0.003 µM, first compound 0.949 µM",9.4%
same,"viability, T/C","second compound 0.003 µM, first compound 3 µM",1.27%
[2H]c1nc(C)nc([2H])c1-c1cc(NC[C@@H](C)c2cccc3c(C(=O)NC)ccnc23)ncn1 + COc1cc2c(cc1O)CCNC21CSC2c3c(OC(C)=O)c(C)c4c(c3C(COC1=O)N1C(O)C3Cc5cc(C)c(OC)c(O)c5C(C21)N3C)OCO4,IC50,second compound 30 pM,> 10000 nM
same,IC50,second compound 94.9 pM,> 10000 nM
same,IC50,second compound 0.0003 µM,> 10000 nM
same,IC50,second compound 0.000949 µM,6590 nM
same,IC50,second compound 0.003 µM,< 31.6 nM
same,"viability, T/C",[1],106%
same,"viability, T/C",[2],105%
same,"viability, T/C",[3],102%
same,"viability, T/C",[4],107%
same,"viability, T/C",[5],102%
same,"viability, T/C",[6],98.7%
same,"viability, T/C",[7],106%
same,"viability, T/C",[8],102%
same,"viability, T/C",[9],99%
same,"viability, T/C",[10],98.2%
same,"viability, T/C",[11],97.6%
same,"viability, T/C",[12],99.5%
same,"viability, T/C",[13],97.6%
same,"viability, T/C",[14],94.8%
same,"viability, T/C",[15],93%
same,"viability, T/C",[16],88.5%
same,"viability, T/C",[17],98%
same,"viability, T/C",[18],91.3%
same,"viability, T/C",[19],78.6%
same,"viability, T/C",[20],76.5%
same,"viability, T/C",[21],71.1%
same,"viability, T/C",[22],66.2%
same,"viability, T/C",[23],56.2%
same,"viability, T/C",[24],46.2%
same,"viability, T/C",[25],18.6%
same,"viability, T/C",[26],22.6%
same,"viability, T/C",[27],18%
same,"viability, T/C",[28],18.1%
same,"viability, T/C",[29],11%
same,"viability, T/C",[30],3.59%

# — PubChem BioAssay AID1845200 (Molecular Pharmacology Branch, DTP, NCI, 2023)
